Here are results for 2 compounds from patent US9060981B2, “Marker associated with non-alcoholic steatohepatitis” (MOCHIDA PHARMACEUTICAL CO., LTD., priority 2009, dated 2015).

The subject of assay [1] is B6 mice. Put plainly: Fatty liver in B6 mice raised 20 weeks on high fat/high sugar diet. The assay is classed as in vivo, mouse. The note with it: high fat/high sugar diet + 5% EPA-E, free feeding, 20 weeks (group III). From the text: B6 mice (10 week old) were divided into control group (I), HF-HS group (II), and EPA group (III) (n=7 to 10), and the mice were raised for 20 weeks by free feeding of the following diet.

In assay [2] the test system is second factor group genes in the liver. Put plainly: Gene microarray analysis of the liver of mice on high fat/high sugar diet. The note with it: EPA group vs HF-HS group, 20 weeks. It counts as in vivo, mouse. An excerpt:
(2) Next, expression of genes in the liver was compared in 3 groups, namely, the control group fed with normal diet, the HF-HS group, and the EPA group. […] (A) HF-HS group/control group ≧2 and EPA group/HF-HS group ≦0.5. (B) HF-HS group/control group ≦0.5 and EPA group/HF-HS group ≧2. Liver was extirpated from the mice of each group, and RNA was extracted by homogenization to conduct gene microarray analysis of the liver. The genes were selected as described below. (1) Genes with group II/group I expression ratio of 2 or higher and group III/group II expression ratio of up to 1/2 were selected. (2) Genes with the group II/group I expression ratio of up to 1/2 and the group III/group II ratio of 2 or more were selected. […] (4) Genes which are (1) but not (3) were selected. (5) Genes which are (2) but not (3) were selected. Next, factors with the possibility of protein secretion into blood were selected from the genes (4), and then, genes satisfying any of relevance with lipid metabolism, relevance with inflammation, increase of expression in the liver of SREBP transgenic mouse were selected from these genes. Genes were selected from the genes (5) by conducting the procedure corresponding to (6).

Assay [3] concerns NASH model rats. Particulars: telmisartan administered for 10 weeks; cited from earlier work.

Entries after “also recorded” stand apart in the source; their conditions may differ.

For the compound `CC/C=C\C/C=C\C/C=C\C/C=C\C/C=C\CCCC(=O)OCC` [EPA-E, ethyl icosapentate], the fatty liver entry in assay [1] was “fatty liver was not observed; also recorded: fatty liver was not induced”. Further, the “group III/group II expression ratio, second factor (A) group genes” value in assay [2] (genes with group II/group I ratio of 2 or higher (Table 2)) was “up to 1/2”. In assay [2] (genes with group II/group I ratio of up to 1/2 (Table 3)), the “group III/group II expression ratio, second factor (B) group genes” value is at least 2.

As for `CCCc1nc2c(C)cc(-c3nc4ccccc4n3C)cc2n1Cc1ccc(-c2ccccc2C(=O)O)cc1` [telmisartan], in assay [3], the “expression of TIMP1 and TIMP2 mRNAs in the liver tissue” value was “decrease”; the liver fibrosis result is on record as “suppression; also recorded: suppressed”.
